The text below walks through data of the supplement of paper PMC10307832.

What all share (assay): relative viability (nuclei count vs DMSO), 5 days (fraction); higher = more cells survive
Compound in one assay: Cc1ccc(C(=O)Nc2ccc(CN3CCN(C)CC3)c(C(F)(F)F)c2)cc1C#Cc1cnc2cccnn12 [Ponatinib]
A digest of the protocol: (§1)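 Cells of lung cancer lines were placed in 1536-well plates and kept overnight at 37 °C. Pinning then delivered five library-drug doses (not always all listed), spaced by √10, onto plates anchored with vehicle, and the cells were left 5 days without changing medium. One step fixed, permeabilised and stained them with Hoechst, and MetaXpress counted nuclei in 4× images. Viability, as a median over plates, is treated-well nuclei divided by vehicle-well nuclei, with acceptance only at control CV below 25% and at least one doubling.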

Compound in another assay: Cc1ccc(Nc2nccc(N(C)c3ccc4c(C)n(C)nc4c3)n2)cc1S(N)(=O)=O [Pazopanib]
The method in brief:
as §1

Compound in the assay “Ponatinib + Trametinib”: Cc1ccc(C(=O)Nc2ccc(CN3CCN(C)CC3)c(C(F)(F)F)c2)cc1C#Cc1cnc2cccnn12 [Ponatinib] + CC(=O)Nc1cccc(-n2c(=O)n(C3CC3)c(=O)c3c(Nc4ccc(I)cc4F)n(C)c(=O)c(C)c32)c1 [Trametinib] (partner 0.02 µM)
The method in brief: (§2)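 Cells from lung cancer lines were seeded into 1536-well plates and, one day later, dosed by pin tool. Treatments were either a single drug or a fixed dose of an anchor drug with five library-drug doses (not always all listed) in √10 steps. After 5 days, nuclei were stained in a one-step fixation (final 0.05% Triton X-100, 1% formaldehyde, 1 ug/ml Hoechst) and counted on 4× images, and relative viability is the treated-to-vehicle nuclei ratio, as the median of duplicate plates.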

Compound in the assay “Pazopanib + Navitoclax”: Cc1ccc(Nc2nccc(N(C)c3ccc4c(C)n(C)nc4c3)n2)cc1S(N)(=O)=O [Pazopanib] + CC1(C)CCC(c2ccc(Cl)cc2)=C(CN2CCN(c3ccc(C(=O)NS(=O)(=O)c4ccc(N[C@H](CCN5CCOCC5)CSc5ccccc5)c(S(=O)(=O)C(F)(F)F)c4)cc3)CC2)C1 [Navitoclax] (partner 0.5 µM)
A digest of the protocol:
as §2

In the case of NCI-H3122, the relative viability in the assay with Ponatinib (0.002 µM) is 0.979; with Ponatinib (0.006325 µM), 0.997; with Ponatinib (0.06325 µM), 1.02; in the assay with Ponatinib (0.2 µM), 1.02; in the assay with Pazopanib (0.01 µM), 1.04; with Pazopanib (0.03162 µM), 0.997. Moreover, the relative viability with Pazopanib (0.1 µM) amounted to 1.01; with Pazopanib (0.3162 µM), 1.06; with Pazopanib (1 µM) it was 1.05; with Ponatinib + Trametinib (first compound 0.002 µM) it was 0.256; with Ponatinib + Trametinib (first compound 0.006325 µM), 0.199; with Ponatinib + Trametinib (first compound 0.06325 µM), 0.241. For the same cell line, the relative viability amounted to 0.209 in the assay with Ponatinib + Trametinib (first compound 0.2 µM); 1.09 with Pazopanib + Navitoclax (first compound 0.01 µM); 1.05 with Pazopanib + Navitoclax (first compound 0.03162 µM); 1.05 with Pazopanib + Navitoclax (first compound 0.1 µM); 1.08 with Pazopanib + Navitoclax (first compound 0.3162 µM); 1.13 in the assay with Pazopanib + Navitoclax (first compound 1 µM).

On to NCI-H441, for which the relative viability stood at 0.899 with Ponatinib (0.002 µM); 0.925 with Ponatinib (0.006325 µM); 1.07 with Ponatinib (0.06325 µM); 0.855 with Ponatinib (0.2 µM); 0.931 in the assay with Pazopanib (0.01 µM); 1.05 with Pazopanib (0.03162 µM). The relative viability with Pazopanib (0.1 µM) is 0.982; in the assay with Pazopanib (0.3162 µM) it was 0.905; with Pazopanib (1 µM), 0.958; with Ponatinib + Trametinib (first compound 0.002 µM), 0.389; in the assay with Ponatinib + Trametinib (first compound 0.006325 µM) it was 0.435; with Ponatinib + Trametinib (first compound 0.06325 µM) it was 0.485. Moreover, the relative viability in the assay with Ponatinib + Trametinib (first compound 0.2 µM) was determined as 0.382; with Pazopanib + Navitoclax (first compound 0.01 µM), 0.516; with Pazopanib + Navitoclax (first compound 0.03162 µM) it was 0.493; with Pazopanib + Navitoclax (first compound 0.1 µM), 1.12; in the assay with Pazopanib + Navitoclax (first compound 0.3162 µM), 0.553; with Pazopanib + Navitoclax (first compound 1 µM), 0.765.

Turning to NCI-H1793, the relative viability came out at 0.959 in the assay with Ponatinib (0.002 µM); 0.914 in the assay with Ponatinib (0.006325 µM); 0.89 with Ponatinib (0.06325 µM); 0.715 with Ponatinib (0.2 µM); 0.875 in the assay with Pazopanib (0.03162 µM); 0.856 in the assay with Pazopanib (0.1 µM). The relative viability in the assay with Pazopanib (0.3162 µM) stood at 0.961; in the assay with Pazopanib (1 µM) it was 1.16; with Ponatinib + Trametinib (first compound 0.002 µM), 0.395; with Ponatinib + Trametinib (first compound 0.006325 µM) it was 0.511; with Ponatinib + Trametinib (first compound 0.06325 µM), 0.344; with Ponatinib + Trametinib (first compound 0.2 µM), 0.347. The relative viability with Pazopanib + Navitoclax (first compound 0.03162 µM) came out at 0.421; with Pazopanib + Navitoclax (first compound 0.1 µM) it was 0.387; with Pazopanib + Navitoclax (first compound 0.3162 µM), 0.463; with Pazopanib + Navitoclax (first compound 1 µM), 0.542.

Take SK-MES-1: the relative viability worked out at 0.944 with Ponatinib (0.002 µM); 1.06 with Ponatinib (0.006325 µM); 1.15 in the assay with Ponatinib (0.06325 µM); 1 with Ponatinib (0.2 µM); 0.946 in the assay with Pazopanib (0.01 µM); 0.987 in the assay with Pazopanib (0.03162 µM). The relative viability worked out at 1.04 with Pazopanib (0.1 µM); 1.05 in the assay with Pazopanib (0.3162 µM); 1.05 in the assay with Pazopanib (1 µM); 0.629 with Ponatinib + Trametinib (first compound 0.002 µM); 0.693 with Ponatinib + Trametinib (first compound 0.006325 µM); 0.511 in the assay with Ponatinib + Trametinib (first compound 0.06325 µM). Moreover, the relative viability in the assay with Ponatinib + Trametinib (first compound 0.2 µM) was 0.454; in the assay with Pazopanib + Navitoclax (first compound 0.01 µM) it was 1.29; with Pazopanib + Navitoclax (first compound 0.03162 µM) it was 1.32; with Pazopanib + Navitoclax (first compound 0.1 µM) it was 1.42; with Pazopanib + Navitoclax (first compound 0.3162 µM) it was 1.3; with Pazopanib + Navitoclax (first compound 1 µM), 1.15.

As for PC-14, the relative viability amounted to 0.887 with Ponatinib (0.002 µM); 0.984 with Ponatinib (0.006325 µM); 1.16 with Ponatinib (0.06325 µM); 0.993 in the assay with Ponatinib (0.2 µM); 1.06 with Pazopanib (0.01 µM); 1.07 with Pazopanib (0.03162 µM). For the same cell line, the relative viability is 1.06 with Pazopanib (0.1 µM); 1.1 with Pazopanib (0.3162 µM); 1.11 with Pazopanib (1 µM); 0.701 with Ponatinib + Trametinib (first compound 0.002 µM); 0.727 in the assay with Ponatinib + Trametinib (first compound 0.006325 µM); 0.859 with Ponatinib + Trametinib (first compound 0.06325 µM). Also, the relative viability in the assay with Ponatinib + Trametinib (first compound 0.2 µM) amounted to 0.794; with Pazopanib + Navitoclax (first compound 0.01 µM) it was 1.06; with Pazopanib + Navitoclax (first compound 0.03162 µM), 1.06; with Pazopanib + Navitoclax (first compound 0.1 µM), 1.09; with Pazopanib + Navitoclax (first compound 0.3162 µM) it was 0.954; with Pazopanib + Navitoclax (first compound 1 µM) it was 0.948.

As for CAL-12T, the relative viability was determined as 0.929 in the assay with Ponatinib (0.002 µM); 0.951 in the assay with Ponatinib (0.006325 µM); 1.15 in the assay with Ponatinib (0.06325 µM); 0.97 in the assay with Ponatinib (0.2 µM); 1.15 with Pazopanib (0.01 µM); 0.99 with Pazopanib (0.03162 µM). Also, the relative viability came to 0.986 with Pazopanib (0.1 µM); 1.02 with Pazopanib (0.3162 µM); 1.13 in the assay with Pazopanib (1 µM); 0.315 with Ponatinib + Trametinib (first compound 0.002 µM); 0.311 in the assay with Ponatinib + Trametinib (first compound 0.006325 µM); 0.332 with Ponatinib + Trametinib (first compound 0.06325 µM). Besides, the relative viability came out at 0.239 in the assay with Ponatinib + Trametinib (first compound 0.2 µM); 1.26 with Pazopanib + Navitoclax (first compound 0.01 µM); 1.15 in the assay with Pazopanib + Navitoclax (first compound 0.03162 µM); 1.25 with Pazopanib + Navitoclax (first compound 0.1 µM); 1.27 in the assay with Pazopanib + Navitoclax (first compound 0.3162 µM); 1.34 in the assay with Pazopanib + Navitoclax (first compound 1 µM).
